Test results published in patent US10052317B2, “Method for treating or preventing hot flushes” (Imperial Innovations Limited, priority 2013, dated 2018).
*1 amine or outer side, *2 acyl side, *3 side chain or, on linkers, in order; H or OH if unused. Where a SMILES comes first, the peptide text is derived from it. [ ]: non-standard residue; d: D form. NMeF = CN[C@@H](Cc1ccccc1)C(=O)O; Suc = O=C(CCC(=O)[*:2])[*:1]

Assays:
[1] = system: healthy male subjects; experiment: Dose-finding study with 90-min intravenous infusion of NKB to healthy men; format: in vivo, human
Text: Human sequence neurokinin B was synthesised by Bachem Holding AG (Bubendorf, Switzerland), and purified by reverse-phase high performance liquid chromatography (HPLC). Electrospray mass spectroscopy and amino acid analysis confirmed identity of the peptide (lot:3007511). The Limulus amoebocyte lysate test detected no endotoxin (Associates of Cape Cod, Liverpool, UK), and bacterial culture was sterile (Department of Microbiology, Hammersmith Hospital, London, UK) in samples of neurokinin B peptide. Vials of freeze-dried neurokinin B were stored at −20° C. and reconstituted in 0.9% saline.
23 healthy male subjects participated in the study (mean age of 23 subjects: 29.0±1.3 years; mean body mass index of 23 subjects: 23.3±0.3 kg/m2), following ethical approval (reference:10/H0707/68) and written consent, in accordance with The Declaration of Helsinki. No subjects had any history of hot flushes, deficient levels of sex hormones, or were receiving any regular medications.
Studies were performed in the Clinical Investigation Unit, during which subjects asked to lay supine. This study was blinded to subjects but not investigators. NKB was dissolved in a vehicle consisting of saline containing Gelofusin (5% vol/vol) (B. Braun Medical, Sheffield, UK) to minimize peptide adsorption. […] Heart rate, blood pressure, and adverse symptoms were recorded at regular intervals. […]

[2] = system: healthy female subjects; experiment: 180-min intravenous infusion of NKB to healthy women, hot flush symptom diary; format: in vivo, human
Procedure: Eight healthy female subjects participated in the study, following ethical approval (reference: 10/H0707/68) and written consent, in accordance with The Declaration of Helsinki. All subjects had regular periods. No subjects had any history of hot flushes, deficient levels of sex hormones, or were receiving any regular medications.
(§1) Human sequence neurokinin B was obtained and used as described above.
[…] Continuous cardiac monitoring was performed. Heart rate, blood pressure, and adverse symptoms were recorded at regular intervals. Participants were asked to complete a symptom diary in order to measure subjective frequency and problem rating of hot flushes during each study visit. All subjects also completed a questionnaire at the end of each study visit to summarise the symptoms that they experienced that day. Data was analysed by an investigator in a blinded manner.
Data are presented as mean±standard error of mean (SEM). Multiple means were compared using one-way ANOVA with Dunnett's post-hoc test. Pairs of means were compared using paired two-tailed t-tests.

[3] = system: healthy female volunteers; experiment: Symptom assessment study during 30-min iv infusion of NKB to healthy women; format: in vivo, human; details: 5.12 nmol/kg/min iv for 30 min
Text: (§2) Five healthy female volunteers participated in the study (mean age 37.8±1.7y; mean body mass index 21.9±0.7 kg/m2), following ethical approval (reference: 10/H0707/68) and written consent, in accordance with The Declaration of Helsinki. Participants had no medical problems, were not on any regular medication and had regular menstrual cycles. Participants attended in the mornings and during the follicular phase of their menstrual cycle to minimise physiological changes in body temperature occurring during sleep and associated with ovulation (1) (Day of menstrual cycle: 8.0±0.9)
as §1
Participants were admitted in the morning to the Clinical Investigation Unit between days 3 and 10 of their menstrual cycle, and asked to lay supine for the 180 minute study duration (FIG. 2). A cannula was inserted into a large forearm vein and NKB (5.12 nmol/kg/min) was administered by intravenous (iv) infusion for 30 min commencing at t=90 min. This dose of NKB was selected as it was the maximal dose that was well-tolerated dose experiment 1, above. NKB was dissolved in saline containing gelofusin (5% vol/vol) (B. Braun Medical, Sheffield, UK) to minimize peptide adsorption (Kraegen E W, Lazarus L, Meler H, Campbell L, Chia Y O, Br Med J (1974), 3:464-466). Participants (but not investigators) were blinded as to the identity of the infusion (NKB or vehicle, however all participants received NKB). Participants were informed before the study that they may experience body sensations or symptoms and they were asked to report these in real time during the study. Participants were not specifically informed that they may experience ‘hot flush’ symptoms so as to minimise reporting bias.
Data are presented as mean±standard error of mean (SEM). Means were compared using two-tailed paired t-tests. p<0.05 was considered statistically significant.

[4] = system: healthy female volunteers; experiment: Double-blinded placebo-controlled physiological assessment study during iv infusion of NKB and vehicle to healthy women; format: in vivo, human; details: for mean HR / mean skin temperature by skin probe / mean skin temperature by thermal imaging camera / mean MAP: NKB infusion
Text: as §2, with “Ten” for “Five”, “35.3±1.3y;” for “37.8±1.7y;”, “22.1±0.7” for “21.9±0.7”, “5.9±0.6)” for “8.0±0.9)”
as §1
Having observed in Example 3 that participants reported flushing during NKB infusion, a double-blinded placebo-controlled study was carried out. This was performed in a climate-controlled Clinical Research Unit with ambient temperature 24° C. and humidity 50% as has been established in previous studies to be a suitable environment to investigate menopausal flushing (e.g. de Bakker I P, Everaerd W, Maturitas (1996) 25:87-98; Carpenter J S, Gilchrist J M, Chen K, Gautam S, Freedman R R, Menopause: The Journal of The North American Menopause Society (2004) 11:375-381). Participants were admitted on a morning between days 3 and 10 of their menstrual cycle, and asked to lay supine for the 270 minute study duration (FIG. 3). A cannula was inserted into a large forearm vein in both arms: one for collection of blood, and the second for vehicle (gelofusin) or NKB infusion. 30 minute iv infusion of either NKB ([…]) or vehicle (equivalent volume) were commenced at t=60 min and t=180 min, by an investigator blinded to the identity of each infusion. Each participant received one NKB infusion and one vehicle infusion, randomised and prepared by an independent investigator. Participants were informed that they could receive any of the following: NKB followed by vehicle; vehicle followed by NKB; NKB twice; vehicle twice. This strategy ensured integrity of blinding, since any symptoms experienced during the first infusion would not allow participants to automatically deduce the identity of the second infusion.
In order to prevent confounding factors which may affect flushing, participants were asked to refrain from hot drinks, caffeine, alcohol and spicy foods for 12 hours preceding the study start and for the duration of the study. All participants wore light cotton standard hospital gowns. All studies commenced between 9.30-10.30 am. Two experienced physicians were in attendance at all times. Symptoms, heart rate, blood pressure, sweating and skin temperature monitoring were performed as detailed below:
Heart Rate (HR) and Mean Arterial Blood Pressure (MAP): HR was recorded minutely for 20 minutes pre-infusion until 20 minutes post-infusion. MAP was recorded at 5 minute intervals (to minimize discomfort) for 20 minutes pre-infusion until 20 minutes post-infusion. At other times HR and MAP were recorded at 10 minute intervals (FIG. 3). MAP (in mmHg) was calculated using the following standard formula: MAP=((2×diastolic BP)+systolic BP)/3.
Skin Temperature: Skin temperature was recorded each minute for 20 minutes pre-infusion until 20 minutes post-infusion and at 10 minute intervals at other times. Skin temperature was measured by skin temperature probe attached to the neck (Mindray, Huntingdon, UK) and by thermal imaging camera (T440Bx, Flir, Wilsonville, USA). Thermal imaging temperature values were determined by in-built software which recorded the highest temperature point in a box constructed to contain the shoulders and head of the participant.
Skin Conductance: Increased skin conductance is an objective marker of sweating which occurs in menopausal flushing. […]

[5] = molecular target: T1, NKR3 (Homo sapiens, UniProt P29371); details: literature (Spooren 2006; Griebel 2012; Elmore 2011); cited from earlier work
T1 sequence (P29371 1-465): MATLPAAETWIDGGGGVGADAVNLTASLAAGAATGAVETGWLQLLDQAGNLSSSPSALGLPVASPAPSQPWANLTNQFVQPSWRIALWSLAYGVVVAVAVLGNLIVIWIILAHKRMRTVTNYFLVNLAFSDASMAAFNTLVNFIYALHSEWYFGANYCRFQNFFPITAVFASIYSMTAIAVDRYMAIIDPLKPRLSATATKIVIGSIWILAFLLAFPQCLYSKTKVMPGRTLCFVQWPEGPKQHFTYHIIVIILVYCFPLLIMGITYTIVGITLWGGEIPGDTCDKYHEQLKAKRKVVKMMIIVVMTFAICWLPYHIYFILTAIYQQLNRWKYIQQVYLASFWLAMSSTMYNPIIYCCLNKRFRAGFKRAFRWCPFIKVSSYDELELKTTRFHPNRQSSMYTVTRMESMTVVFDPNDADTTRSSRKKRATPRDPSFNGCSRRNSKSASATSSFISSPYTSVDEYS

[6] = system: ovariectomised rats; details: Dacks et al. 2011; cited from earlier work
[7] = 5.12 nmol/kg/h iv for 30 min, of the flushing participants
[8] = during flushing symptoms, p<0.05 vs. pre-symptoms
[9] = entire 30 minute NKB infusion period vs vehicle infusion period
[10] = over the entire duration of the infusion

NKB: Human sequence neurokinin B synthesised by Bachem, purified by reverse-phase HPLC; tachykinin peptide, natural ligand for NKR3
time to full resolution of symptoms after administration was discontinued ([1]; 10.24 nmol/kg/h): ≤ 5 min | reproductive hormone secretion ([1]; intravenous administration): did not stimulate significant reproductive hormone secretion | hot flushes experienced ([2]; healthy women, iv infusion 0.64 nmol/kg/h (lowest dose)): No hot flushes were experienced | healthy women who experienced hot flushes ([2]; iv infusion 1.28 nmol/kg/h): 1/6 | healthy women who experienced hot flushes ([2]; iv infusion 2.56 nmol/kg/h): 2/7 | healthy women who experienced hot flushes ([2]; iv infusion 5.12 nmol/kg/h (highest dose)): 7/8 | mean number of hot flushes per visit ([2]; iv infusion 5.12 nmol/kg/h, mean±SEM, P<0.01 vs. placebo (0)): 1.13±0.30 | participants experiencing flushing who reported a single flushing episode [3]: Three of the four | participants who experienced three flushing episodes [3]: one | participants reporting flushing during NKB infusion ([3]; P<0.05 vs. vehicle): four out of the five | onset of first flushing episodes after NKB infusion initiation ([4]; 5.12 nmol/kg/h iv for 30 min): 1 to 12 min | severity of flushing symptoms ([4]; 5.12 nmol/kg/h iv for 30 min): mild to strong | participants who experienced flushing during NKB infusion ([4]; 5.12 nmol/kg/h iv for 30 min, double-blinded): eight out of ten | participants with a single flushing episode [4, 7]: five | participants with three flushing episodes [4, 7]: two | participants with two flushing episodes [4, 7]: one | participants with concordant increases in sternal skin conductance at the time of flushing ([4]; 5.12 nmol/kg/h iv, of the flushing participants): six of the eight | mean HR [4, 8]: 76.2±1.6 bpm | mean skin temperature by skin probe [4, 8]: 34.7±0.3 Celsius | mean skin temperature by thermal imaging camera [4, 8]: 36.8±0.1 Celsius | mean MAP ([4]; during flushing symptoms, p=ns vs. pre-symptoms): 82.5±2.2 mmHg | mean MAP ([4]; pre-symptom period): 83.2±8.6 mmHg | mean skin temperature by skin probe ([4]; pre-symptom period): 34.6±0.2 Celsius | mean skin temperature by thermal imaging camera ([4]; pre-symptom period): 36.7±0.1 Celsius | mean HR ([4]; pre-symptom period, mean±SEM): 70.3±2.1 bpm | change in serum FSH [4, 9]: No significant changes | change in serum LH [4, 9]: No significant changes | change in serum estradiol [4, 9]: No significant changes | overall change in HR, NKB vs vehicle infusion [4, 10]: No overall changes | overall change in mean arterial blood pressure (MAP), NKB vs vehicle infusion [4, 10]: No overall changes | overall change in skin temperature (skin probe or thermal imaging camera), NKB vs vehicle infusion [4, 10]: No overall changes

CC(=O)N(C)C1(c2ccccc2)CCN(CCC[C@]2(c3ccc(Cl)c(Cl)c3)CCCN(C(=O)c3ccccc3)C2)CC1 [Osanetant, (R)-N-{{3-[1-Benzoyl-3-(3,4-dichlorophenyl)piperidin-3-yl]prop-1-yl}-4-phenylpiperidin-4-yl}-N-methylacetamine]
selectivity for NKR3 over NKR1 and NKR2 [5]: selective for NKR3 over NKR1 and NKR2

CSCC[C@H](NC(=O)[C@H](CC(C)C)NC(=O)CNC(=O)[C@H](Cc1ccccc1)N(C)C(=O)[C@H](Cc1ccccc1)NC(=O)[C@H](CC(=O)O)NC(=O)CCC(=O)O)C(N)=O [senktide] (Suc-DF[NMeF]GLM-NH2)
core temperature [6]: reduced core temperature

CC[C@H](NC(=O)c1c(O)c(-c2ccccc2)nc2ccccc12)c1ccccc1 [Talnetant, 3-hydroxy-2-phenyl-N-(1-phenylpropyl)quinoline-4-carboxamide]
selectivity for NKR3 over NKR1 and NKR2 [5]: selective for NKR3 over NKR1 and NKR2
